Entries after “also recorded” stand apart in the source; their conditions may differ. Read-outs that look alike come from different tables or passages of the source.
Assays:
DA D2 receptors = biological target: T1, DA D2 receptors (Rattus norvegicus, UniProt P61169); test: Inhibition of 3H-spiperone binding to DA D2 receptors in rat striatal membranes; conditions: IC50, D2 3H-Spi
T1 construct: DA D2 receptors in rat striatal membranes; from tissue; host or cells: rat striatal membranes

DA uptake [1] = test: Inhibition of DA uptake in vitro; type: biochemical
Method: Inhibition of DA Uptake in Vitro was determined as described by K. P. B.o slashed.ges.o slashed., J. Med. Chem. 1983, 26, 935-947.

DA D1 receptor [2] = biological target: T2, DA D1 receptor (Rattus norvegicus, UniProt P18901); test: biochemical; type: binding; conditions: IC50, D1 3H-SCH
T2 sequence (P18901 whole entry): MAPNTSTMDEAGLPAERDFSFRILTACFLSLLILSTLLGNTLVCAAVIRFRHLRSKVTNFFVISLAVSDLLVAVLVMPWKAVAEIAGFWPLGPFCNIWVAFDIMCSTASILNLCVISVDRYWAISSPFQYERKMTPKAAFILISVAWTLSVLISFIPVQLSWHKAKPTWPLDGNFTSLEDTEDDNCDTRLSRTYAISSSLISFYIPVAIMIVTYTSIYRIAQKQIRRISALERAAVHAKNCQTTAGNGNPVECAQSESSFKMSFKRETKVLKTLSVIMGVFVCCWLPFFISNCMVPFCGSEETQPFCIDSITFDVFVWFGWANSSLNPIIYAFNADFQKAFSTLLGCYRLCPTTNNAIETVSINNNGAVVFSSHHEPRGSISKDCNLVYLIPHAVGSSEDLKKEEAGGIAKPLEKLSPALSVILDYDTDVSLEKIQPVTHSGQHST

5-HT2 receptors = biological target: T3, 5-HT2 receptors (Rattus norvegicus, UniProt P14842); test: Inhibition of 3H-ketanserin binding to 5-HT2 receptors in membranes from rat cortex; conditions: Receptor Binding, IC50, 5-HT2 3H-Ket
T3 construct: 5-HT2 receptors in membranes from rat cortex; from tissue; host or cells: membranes from rat cortex
T3 sequence (P14842 whole entry): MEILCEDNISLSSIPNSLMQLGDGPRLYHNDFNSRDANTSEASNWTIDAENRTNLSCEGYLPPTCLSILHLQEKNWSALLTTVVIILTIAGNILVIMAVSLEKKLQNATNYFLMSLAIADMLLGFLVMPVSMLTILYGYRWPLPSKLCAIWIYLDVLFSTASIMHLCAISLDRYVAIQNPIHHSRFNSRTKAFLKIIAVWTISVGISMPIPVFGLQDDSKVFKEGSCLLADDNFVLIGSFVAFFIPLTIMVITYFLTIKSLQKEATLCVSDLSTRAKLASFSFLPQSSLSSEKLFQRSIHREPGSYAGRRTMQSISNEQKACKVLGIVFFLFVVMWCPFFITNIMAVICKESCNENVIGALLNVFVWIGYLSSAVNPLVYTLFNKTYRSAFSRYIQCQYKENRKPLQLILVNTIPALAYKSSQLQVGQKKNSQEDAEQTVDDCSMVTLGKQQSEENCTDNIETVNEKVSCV
Method: Receptor binding studies.
5-HT2 receptors. Inhibition of ^3 H-ketanserin binding to 5-HT2 receptors in membranes from rat cortex was determined as described by Hyttel, J. Acta. Pharmacol. Toxicol.

DA D1 receptor [3] = biological target: T2, DA D1 receptor; test: Antagonism of SK&F 38393-induced circling behavior in rats with unilateral 6-OHDA lesions; type: in vivo; set-up: circling behavior in rats with unilateral 6-OHDA lesions; from tissue; host or cells: living rats with unilateral 6-OHDA lesions; conditions: 2 h
Method: Antagonism of SK&F 38393-induced circling behavior in rats with unilateral 6-OHDA lesions.
This test is a test for the DA D1 receptor antagonistic effect in vivo.
The experiments were performed as described by Arnt, J. and Hyttel, J. J. Neural. Transm. 1986, 67, 225-240. The experiments were done 2-9 months after lesioning when stable contralateral circling response to 2,3,4,5-tetrahydro-7,8-dihydroxy-1-phenyl-1H-3-benzazepine, hydrochloride (SK&F 38393) (4.3 μmol/kg=1.4 mg/kg) were obtained. The test compounds were injected 2 h before administration of SK&F 38393. Antagonistic effect were calculated as percent inhibition of control responses for each rat. Four to eight animals were used per dose.

[4] = Cataleptogenic effect in rats; conditions: rat, in vivo, maximum effect 1-6 h after administration, read-out: ED50 in the catalepsy test
Method: Cataleptogenic effect in rats.
Catalepsy was measured every hour 1-6 h after test drug administration on a vertical wire grid and defined as being present after at least 15-simmobility. The maximum effect between 1-6 h after administration was reported. A total of 8-12 animals were used per dose.

DA D1 receptor [5] = conditions: 3H-piflutixol; D2 by 3H-spiperone; Drug. Dev. Res. 1986, 7, 35-47; cited from earlier work
D1 = conditions: 3H-SCH 23390; Drug. Dev. Res. 1988, 15, 389-404; cited from earlier work
DA uptake [6] = conditions: cited from earlier work
[7] = cited from earlier work; for extrapyramidal side effects (in words): at higher D2 occupancies needed to control psychosis
[8] = Psychopharmacology 1985, 86, 303-305; cited from earlier work
5-HT2 = conditions: cited from earlier work
[9] = rat striatal membranes, 3H-SCH 23390, read-out: Receptor Binding
[10] = rat striatal membranes, 3H-spiperone, read-out: Receptor Binding

T1 sequence (P61169 whole entry): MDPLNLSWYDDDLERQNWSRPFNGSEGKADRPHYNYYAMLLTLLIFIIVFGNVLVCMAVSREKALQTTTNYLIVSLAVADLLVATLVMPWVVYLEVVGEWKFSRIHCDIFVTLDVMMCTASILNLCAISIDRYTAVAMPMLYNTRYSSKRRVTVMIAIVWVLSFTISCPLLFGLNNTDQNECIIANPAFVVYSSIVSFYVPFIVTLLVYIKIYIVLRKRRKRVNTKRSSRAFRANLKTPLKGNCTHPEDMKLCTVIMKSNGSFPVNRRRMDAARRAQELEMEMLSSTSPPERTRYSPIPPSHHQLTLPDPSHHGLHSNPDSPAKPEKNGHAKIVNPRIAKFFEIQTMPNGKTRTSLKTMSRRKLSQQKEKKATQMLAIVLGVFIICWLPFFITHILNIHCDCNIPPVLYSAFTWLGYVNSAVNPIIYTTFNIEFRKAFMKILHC

| SMILES | IC50 (DA D1 receptor [2]; [9]) [nM] | IC50 (5-HT2 receptors) [nM] | IC50 (DA D2 receptors; [10]) [nM] | IC50 (DA D1 receptor [2]; Receptor Binding) [nM] | also measured |
| --- | --- | --- | --- | --- | --- |
| CN1CCN([C@@H]2C[C@@H](c3ccccc3)c3ccc(Cl)cc32)CC1(C)C (racemic) [Compound 10, (±)-Trans-4-[6-chloro-3-phenyl-2,3-dihydro-1H-inden-1-yl]-1,2,2-trimethylpiperazine] | 1.6 | 3.2 |  |  | IC50 (DA D2 receptors; Receptor Binding): 20 nM; IC50 (DA uptake [1]): 15 nM |
| CN1CCN([C@@H]2C[C@@H](c3ccccc3F)c3ccc(Cl)cc32)CC1(C)C (racemic) [Compound 11, (±)-Trans-4-[6-chloro-3-(2-fluorophenyl)-2,3-dihydro-1H-inden-1-yl]-1,2,2-trimethylpiperazine] |  | 21 | 36 | 4.4 |  |
| CN1CCN([C@@H]2C[C@@H](c3cccc(F)c3)c3ccc(Cl)cc32)CC1(C)C (racemic) [Compound 12, (±)-Trans-4-[6-chloro-3-(3-fluorophenyl)-2,3-dihydro-1H-inden-1-yl]-1,2,2-trimethylpiperazine] |  | 26 | 280 | 9.6 |  |
| CC1(C)CN([C@@H]2C[C@@H](c3ccsc3)c3ccc(Cl)cc32)CCN1 (racemic) [Compound 13, (±)-Trans-4-[6-chloro-3-(3-thienyl)-2,3-dihydro-1H-inden-1-yl]-2,2-dimethylpiperazine] |  | 1 | 8.2 | 1.4 |  |
| CN1CCN([C@@H]2C[C@@H](c3ccsc3)c3ccc(Cl)cc32)CC1(C)C (racemic) [Compound 14, (±)-Trans-4-[6-chloro-3-(3-thienyl)-2,3-dihydro-1H-inden-1-yl]-1,2,2-trimethylpiperazine] |  | 1.7 | 6.1 | 0.76 |  |
| CN1CCN([C@@H]2C[C@@H](c3ccc(F)cc3)c3cc(Cl)ccc32)CC1(C)C (racemic) [Compound 16, (±)-Trans-4-[5-chloro-3-(4-fluorophenyl)-2,3-dihydro-1H-inden-1-yl]-1,2,2-trimethylpiperazine] |  | 9.3 | 340 | 37 |  |
| CN1CCN([C@@H]2C[C@@H](c3ccc(F)cc3)c3cccc(Cl)c32)CC1(C)C (racemic) [Compound 17, (±)-Trans-4-[7-chloro-3-(4-fluorophenyl)-2,3-dihydro-1H-inden-1-yl]-1,2,2-trimethylpiperazine] |  | 31 | 1200 | 32 |  |
| CCC1(CC)CN([C@@H]2C[C@@H](c3ccc(F)cc3)c3ccc(Cl)cc32)CCN1 (racemic) [Compound 23, (±)-Trans-4-[6-chloro-3-(4-fluorophenyl)-2,3-dihydro-1H-inden-1-yl]-2,2-diethylpiperazine] | 4.7 | 11 | 36 |  |  |
| Fc1ccc([C@@H]2C[C@@H](N3CCNC4(CCCCC4)C3)c3cc(Cl)ccc32)cc1 (racemic) [Compound 31, (±)-Trans-4-[6-chloro-3-(4-fluorophenyl)-2,3-dihydro-1H-inden-1-yl]-1,4-diazaspiro[5.5]undecan] | 6.4 | 25 | 75 |  |  |
| CN1CCN([C@@H]2C[C@@H](c3ccc(F)cc3)c3cccc(F)c32)CC1(C)C (racemic) [Compound 36, (±)-Trans-4-[7-fluoro-3-(4-fluorophenyl)-2,3-dihydro-1H-inden-1-yl]-1,2,2-trimethyl piperazine] |  | 9.8 | 74 | 3.8 |  |
| CN1CCN([C@@H]2C[C@@H](c3ccc(F)cc3)c3ccc(F)cc32)CC1(C)C (racemic) [Compound 38, (±)-Trans-4-[6-fluoro-3-(4-fluorophenyl)-2,3-dihydro-1H-inden-1-yl]-1,2,2-trimethyl piperazine] |  | 3.6 | 11 | 0.88 | IC50 (DA uptake [1]): 9 nM; ED50 (DA D1 receptor [3]): 0.5 µmol/kg; ED50 [4]: > 68 µmol/kg |
| CC1(C)CN([C@@H]2C[C@@H](c3ccc(F)cc3)c3ccc(Cl)cc32)CCN1CCCO (racemic) [Compound 39, (±)-Trans-4-[6-chloro-3-(4-fluorophenyl)-2,3-dihydro-1H-inden-1-yl]-2,2-dimethyl-1-piperazinepropanol] | 1.8 | 3 | 9.8 |  |  |
| OCCN1CCN([C@@H]2C[C@@H](c3ccc(F)cc3)c3ccc(C(F)(F)F)cc32)CC1 (racemic) [Tefludazine] |  |  |  |  | DA D1 receptor affinity (in words) (DA D1 receptor [5]): substantially lower than the D2 affinity |
| CC(C)C1CN([C@@H]2C[C@@H](c3ccc(F)cc3)c3ccc(Cl)cc32)CCN1 (relative stereo) [Compound 19, Trans-4-[6-chloro-3-(4-fluorophenyl)-2,3-dihydro-1H-inden-1-yl]-2-(2-propyl)piperazine] | 2.2 | 5.6 | 38 |  |  |
| CC(C)C1CN([C@@H]2C[C@@H](c3ccc(F)cc3)c3ccc(Cl)cc32)CCN1 (relative stereo) [Compound 20, Trans-4-[6-chloro-3-(4-fluorophenyl)-2,3-dihydro-1H-inden-1-yl]-2-(2-propyl)piperazine] | 6 | 8.8 | 130 |  |  |
| CN1CCN([C@@H]2C[C@@H](c3ccc(F)cc3)c3ccc(Cl)cc32)CC1(C)C (single isomer, unassigned) [+2, (+) Trans-4-[6-chloro-3-(4-fluorophenyl)-2,3-dihydro-1H-inden-1-yl]-1,2,2-trimethylpiperazine] |  | 2000 |  |  | IC50 (DA uptake [1]): 16 nM |
| Fc1ccc(C2CC(N3CCN4CCCCC4C3)c3cc(F)ccc32)cc1 (stereo not shown) [Compound 33, 2-[6-fluoro-3-(4-fluorophenyl)-2,3-dihydro-1H-inden-1-yl]-octahydropyrido[1,2-a]-pyrazine] | 5.8 | 28 | 320 |  |  |
| O=C1NCCN1CCN1CCN([C@@H]2C[C@@H](c3ccc(F)cc3)c3ccccc32)CC1 [Irindalone, reference compound] |  |  |  |  | IC50 (DA D1 receptor [2]; read-out: Receptor Binding): 890 nM; D1 affinity (in words) (D1): even lower than the D2 affinity |
| COC(=O)[C@H]1[C@@H](OC(=O)c2ccccc2)C[C@@H]2CC[C@H]1N2C [cocaine] |  |  |  |  | DA uptake inhibition (in words) (DA uptake [6]): inhibitor of DA uptake |
| O=C(CCCN1CCC(O)(c2ccc(Cl)cc2)CC1)c1ccc(F)cc1 [haloperidol] |  |  |  |  | extrapyramidal side effects (in words) [7]: accompanied by extrapyramidal side effects |
| OCCN1CCN(CCCN2c3ccccc3Sc3ccc(Cl)cc32)CC1 [perphenazine] |  |  |  |  | extrapyramidal side effects (in words) [7]: accompanied by extrapyramidal side effects |
| Cc1nc2sccn2c(=O)c1CCN1CCC(=C(c2ccc(F)cc2)c2ccc(F)cc2)CC1 [ritanserin] |  |  |  |  | effect in animal test (in words) [8]: exert effects in an animal test reminiscent of anxiolytic activity; 5-HT2 antagonism (in words) (5-HT2): selective 5-HT2 antagonist; clinical effect (in words) ([7]; patients): shown to be an antidepressant and to improve depressive symptoms of schizophrenia; also recorded: improve the quality of sleep; also recorded: found to relieve neuroleptic-induced parkinsonism |
| Cc1nc2n(c(=O)c1CCN1CCC(C(=O)c3ccc(F)cc3)CC1)CCS2 [setoperone] |  |  |  |  | 5-HT2 antagonism (in words) (5-HT2): 5-HT2 and moderate dopamine receptor antagonist |
